Laboratory results taken from ChEMBL document CHEMBL1201862, “PubChem BioAssay data set” (2004).
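Test compounds were applied to cells in 96-well plates for 48 hours at 5 doses. GI50 = concentration required for 50% inhibition of growth.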 Active and inactive are the calls of the source. Rule as the data show it: active = GI50 up to about 1.1 µM and inactive = higher.

Columns and labels:
Assay in all cases: NCI-60 cell line screen, 48 h
PC-3 = system: PC-3
OVCAR-4 = system: OVCAR-4
RXF 393 = system: RXF 393
OVCAR-5 = system: OVCAR-5
NCI-H226 = system: NCI-H226
M14 = system: M14
HCT-116 = system: HCT-116
OVCAR-8 = system: OVCAR-8
UACC-257 = system: UACC-257
SK-MEL-5 = system: SK-MEL-5
DU-145 = system: DU-145
UO-31 = system: UO-31
SF-268 = system: SF-268
LOX IMVI = system: LOX IMVI
SN12C = system: SN12C
OVCAR-3 = system: OVCAR-3
MDA-N = system: MDA-N
NCI-H23 = system: NCI-H23
A549 = system: A549
TK-10 = system: TK-10
NCI/ADR-RES = system: NCI/ADR-RES
T47D = system: T47D
HT-29 = system: HT-29
CAKI-1 = system: CAKI-1
SK-OV-3 = system: SK-OV-3
HCC 2998 = system: HCC 2998
HOP-92 = system: HOP-92
Malme-3M = system: Malme-3M
MCF7 = system: MCF7
SF-539 = system: SF-539
SNB-75 = system: SNB-75
U-251 = system: U-251
SK-MEL-2 = system: SK-MEL-2
IGROV-1 = system: IGROV-1
CCRF-CEM = system: CCRF-CEM
BT-549 = system: BT-549
ACHN = system: ACHN
RPMI-8226 = system: RPMI-8226
KM12 = system: KM12
SNB-19 = system: SNB-19
SR = system: SR
SF-295 = system: SF-295
MDA-MB-435 = system: MDA-MB-435
UACC-62 = system: UACC-62
NCI-H522 = system: NCI-H522
K562 = system: K562
SW-620 = system: SW-620
Hs-578T = system: Hs-578T
MOLT-4 = system: MOLT-4
COLO 205 = system: COLO 205
NCI-H460 = system: NCI-H460
SK-MEL-28 = system: SK-MEL-28
EKVX = system: EKVX

Measured: GI50

Cc1cc(C)c(S(=O)(=O)N(CCCCN)OCCCN)c(C)c1
inactive: PC-3 13.3 µM | OVCAR-4 17.5 µM | RXF 393 15.2 µM | OVCAR-5 19.5 µM | NCI-H226 16.5 µM | M14 18.7 µM | HCT-116 16.7 µM | OVCAR-8 17.4 µM | UACC-257 16.2 µM | SK-MEL-5 23.7 µM | DU-145 15.6 µM | UO-31 17.5 µM | SF-268 18.4 µM | LOX IMVI 15.2 µM | SN12C 18.7 µM | OVCAR-3 18.4 µM | MDA-N 16.4 µM | NCI-H23 26.9 µM | A549 19.3 µM | TK-10 18 µM | NCI/ADR-RES 20.7 µM | T47D 18.2 µM | HT-29 14.3 µM | CAKI-1 17.4 µM | SK-OV-3 16.8 µM | HCC 2998 2.28 µM | HOP-92 19 µM | Malme-3M 20.9 µM | MCF7 17.7 µM | SF-539 21.8 µM | SNB-75 13.5 µM | U-251 15.4 µM | SK-MEL-2 15.1 µM | IGROV-1 13.6 µM | CCRF-CEM 15.7 µM | BT-549 19.1 µM | ACHN 22.5 µM | RPMI-8226 8.04 µM | KM12 19.5 µM | SNB-19 19.6 µM | SR 9.59 µM | SF-295 19.6 µM | MDA-MB-435 16.6 µM | UACC-62 16.4 µM | NCI-H522 16.2 µM | K562 13.9 µM | SW-620 17.9 µM | Hs-578T 16 µM | MOLT-4 11.7 µM | COLO 205 9.04 µM | NCI-H460 19 µM | SK-MEL-28 18.3 µM | EKVX 16.4 µM
